Test results reported in patent US9821080B2 (priority 2011, dated 2017).

Columns and labels:
H1N1 = tested on: H1N1; parameters: species or system influenza virus A/Puerto Rico/8/1934 (H1N1)
ST cells = assay type: cell-based, swine

Substance: fluorescein isothiocyanate [FITC]
- total fluorescence relative to H1N1 modified with 25 μg/ml FSL-FLRO4 (H1N1): about 9 times
- fewer labelled virions infecting cells compared with 25 μg/ml FSL-FLRO4 modified H1N1 (ST cells): 9 times
